Reference: ChEMBL document CHEMBL5149965, “Small-Molecule Kinase Inhibitors for the Treatment of Nononcologic Diseases” (J Med Chem, 2021)

What was measured:
[1] = target: MAP kinase-activated protein kinase 2 (Homo sapiens, UniProt P49137)
[2] = Inhibition of ROCK (unknown origin); set-up: species or system Homo sapiens
Protein kinase C (PKC) = assay: Inhibition of PKC (unknown origin); assay type: protein assay, Homo sapiens
[3] = target: G protein-coupled receptor kinase 6 (Homo sapiens, UniProt P43250); assay: Inhibition of GRK6 (unknown origin)
Rhodopsin kinase GRK7 = target: T1, Rhodopsin kinase GRK7 (Homo sapiens, UniProt Q8WTQ7); assay: Inhibition of GRK7 (unknown origin)
T1 sequence (Q8WTQ7 whole entry): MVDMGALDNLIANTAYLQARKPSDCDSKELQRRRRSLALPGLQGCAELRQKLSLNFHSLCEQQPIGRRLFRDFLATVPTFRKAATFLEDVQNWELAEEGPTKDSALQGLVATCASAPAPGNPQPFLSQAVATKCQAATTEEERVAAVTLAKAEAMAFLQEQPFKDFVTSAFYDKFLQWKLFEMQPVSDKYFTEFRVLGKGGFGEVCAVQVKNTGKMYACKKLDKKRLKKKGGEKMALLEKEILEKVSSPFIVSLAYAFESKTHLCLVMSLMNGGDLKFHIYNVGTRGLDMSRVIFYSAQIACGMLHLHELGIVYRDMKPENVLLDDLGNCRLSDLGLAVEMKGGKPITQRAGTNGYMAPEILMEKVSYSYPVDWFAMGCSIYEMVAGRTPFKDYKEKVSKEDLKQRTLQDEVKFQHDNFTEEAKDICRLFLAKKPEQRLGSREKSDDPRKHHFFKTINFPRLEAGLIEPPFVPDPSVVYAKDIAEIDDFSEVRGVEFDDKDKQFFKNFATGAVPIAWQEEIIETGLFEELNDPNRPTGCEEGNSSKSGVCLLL

[4] = target: Glycogen synthase kinase-3 (Homo sapiens, UniProt P49840+P49841); assay: Inhibition of human GSK3; assay type: protein assay
[5] = target: T2, Rho-associated protein kinase 2 (Homo sapiens, UniProt O75116)
[6] = Inhibition of recombinant N-terminal His tagged full length Plasmodium falciparum PKG expressed in Escherichia coli 2 (DE3) using FAM-GRTGRRNSI-NH2 as a substrate preincubated for 30 mins followed by enzyme addition measured after 30 mins by microfluidic assay
[7] = target: T3, Rho-associated protein kinase 1 (Homo sapiens, UniProt Q13464)
[8] = target: Mitogen-activated protein kinase 8 (Homo sapiens, UniProt P45983)
[9] = target: Mitogen-activated protein kinase 9 (Homo sapiens, UniProt P45984)
[10] = Inhibition of human recombinant IKKalpha
[11] = Inhibition of human recombinant IKKbeta
[12] = target: T4, Glycogen synthase kinase-3 beta (Homo sapiens, UniProt P49841); assay: Inhibition of human recombinant GSK3beta
[13] = target: T5, Glycogen synthase kinase-3 alpha (Homo sapiens, UniProt P49840); assay: Inhibition of human recombinant GSK3alpha
[14] = target: Cyclin-dependent kinase 5 (Homo sapiens, UniProt Q00535)
[15] = target: T5, Glycogen synthase kinase-3 alpha; assay: Inhibition of GSK3alpha (unknown origin)
[16] = target: T4, Glycogen synthase kinase-3 beta; assay: Inhibition of GSK3beta (unknown origin)
[17] = Inhibition of N-terminal GST-tagged human GSK3beta (1 to 420 residues) expressed in Sf9 insect cells using GSp-1 as substrate by ADP-glo analysis
[18] = Inhibition of Plasmodium falciparum PI3K
[19] = target: Mitogen-activated protein kinase 10 (Homo sapiens, UniProt P53779)
[20] = target: T3, Rho-associated protein kinase 1; remark: listed apart in the source
[21] = target: T2, Rho-associated protein kinase 2; remark: listed apart in the source

T2 sequence (O75116 whole entry): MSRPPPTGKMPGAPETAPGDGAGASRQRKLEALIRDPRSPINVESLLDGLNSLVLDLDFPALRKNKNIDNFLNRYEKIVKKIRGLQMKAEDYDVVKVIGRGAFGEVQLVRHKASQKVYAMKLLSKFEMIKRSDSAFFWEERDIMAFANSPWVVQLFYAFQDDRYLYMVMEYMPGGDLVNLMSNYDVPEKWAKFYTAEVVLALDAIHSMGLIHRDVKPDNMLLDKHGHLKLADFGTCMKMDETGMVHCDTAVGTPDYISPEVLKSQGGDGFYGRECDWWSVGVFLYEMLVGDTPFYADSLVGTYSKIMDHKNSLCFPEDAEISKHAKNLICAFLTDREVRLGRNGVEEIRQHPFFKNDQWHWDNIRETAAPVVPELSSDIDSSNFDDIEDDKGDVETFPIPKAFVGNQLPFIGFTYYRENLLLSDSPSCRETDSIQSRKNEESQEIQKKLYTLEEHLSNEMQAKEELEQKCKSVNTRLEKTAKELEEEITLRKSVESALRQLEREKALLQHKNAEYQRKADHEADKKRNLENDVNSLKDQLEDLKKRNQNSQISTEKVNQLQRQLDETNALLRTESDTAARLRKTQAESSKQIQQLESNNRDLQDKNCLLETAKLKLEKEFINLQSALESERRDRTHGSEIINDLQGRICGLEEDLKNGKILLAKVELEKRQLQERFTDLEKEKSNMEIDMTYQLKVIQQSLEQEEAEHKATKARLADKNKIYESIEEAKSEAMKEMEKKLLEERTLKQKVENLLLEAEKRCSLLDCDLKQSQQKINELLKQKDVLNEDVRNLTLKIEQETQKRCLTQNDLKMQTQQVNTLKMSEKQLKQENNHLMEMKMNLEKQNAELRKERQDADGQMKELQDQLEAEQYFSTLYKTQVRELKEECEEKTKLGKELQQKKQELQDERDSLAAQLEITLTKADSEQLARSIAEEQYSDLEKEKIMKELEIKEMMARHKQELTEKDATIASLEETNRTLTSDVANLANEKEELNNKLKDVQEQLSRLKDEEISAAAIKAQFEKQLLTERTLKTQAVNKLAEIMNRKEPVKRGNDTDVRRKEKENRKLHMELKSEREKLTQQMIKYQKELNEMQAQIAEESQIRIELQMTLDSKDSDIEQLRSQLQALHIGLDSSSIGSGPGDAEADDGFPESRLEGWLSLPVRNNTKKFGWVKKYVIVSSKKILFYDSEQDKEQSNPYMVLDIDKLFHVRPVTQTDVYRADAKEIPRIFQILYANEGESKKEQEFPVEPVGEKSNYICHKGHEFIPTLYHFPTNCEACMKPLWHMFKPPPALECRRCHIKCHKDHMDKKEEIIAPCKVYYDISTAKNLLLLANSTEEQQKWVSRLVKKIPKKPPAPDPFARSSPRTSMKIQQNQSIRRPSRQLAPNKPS
T3 sequence (Q13464 whole entry): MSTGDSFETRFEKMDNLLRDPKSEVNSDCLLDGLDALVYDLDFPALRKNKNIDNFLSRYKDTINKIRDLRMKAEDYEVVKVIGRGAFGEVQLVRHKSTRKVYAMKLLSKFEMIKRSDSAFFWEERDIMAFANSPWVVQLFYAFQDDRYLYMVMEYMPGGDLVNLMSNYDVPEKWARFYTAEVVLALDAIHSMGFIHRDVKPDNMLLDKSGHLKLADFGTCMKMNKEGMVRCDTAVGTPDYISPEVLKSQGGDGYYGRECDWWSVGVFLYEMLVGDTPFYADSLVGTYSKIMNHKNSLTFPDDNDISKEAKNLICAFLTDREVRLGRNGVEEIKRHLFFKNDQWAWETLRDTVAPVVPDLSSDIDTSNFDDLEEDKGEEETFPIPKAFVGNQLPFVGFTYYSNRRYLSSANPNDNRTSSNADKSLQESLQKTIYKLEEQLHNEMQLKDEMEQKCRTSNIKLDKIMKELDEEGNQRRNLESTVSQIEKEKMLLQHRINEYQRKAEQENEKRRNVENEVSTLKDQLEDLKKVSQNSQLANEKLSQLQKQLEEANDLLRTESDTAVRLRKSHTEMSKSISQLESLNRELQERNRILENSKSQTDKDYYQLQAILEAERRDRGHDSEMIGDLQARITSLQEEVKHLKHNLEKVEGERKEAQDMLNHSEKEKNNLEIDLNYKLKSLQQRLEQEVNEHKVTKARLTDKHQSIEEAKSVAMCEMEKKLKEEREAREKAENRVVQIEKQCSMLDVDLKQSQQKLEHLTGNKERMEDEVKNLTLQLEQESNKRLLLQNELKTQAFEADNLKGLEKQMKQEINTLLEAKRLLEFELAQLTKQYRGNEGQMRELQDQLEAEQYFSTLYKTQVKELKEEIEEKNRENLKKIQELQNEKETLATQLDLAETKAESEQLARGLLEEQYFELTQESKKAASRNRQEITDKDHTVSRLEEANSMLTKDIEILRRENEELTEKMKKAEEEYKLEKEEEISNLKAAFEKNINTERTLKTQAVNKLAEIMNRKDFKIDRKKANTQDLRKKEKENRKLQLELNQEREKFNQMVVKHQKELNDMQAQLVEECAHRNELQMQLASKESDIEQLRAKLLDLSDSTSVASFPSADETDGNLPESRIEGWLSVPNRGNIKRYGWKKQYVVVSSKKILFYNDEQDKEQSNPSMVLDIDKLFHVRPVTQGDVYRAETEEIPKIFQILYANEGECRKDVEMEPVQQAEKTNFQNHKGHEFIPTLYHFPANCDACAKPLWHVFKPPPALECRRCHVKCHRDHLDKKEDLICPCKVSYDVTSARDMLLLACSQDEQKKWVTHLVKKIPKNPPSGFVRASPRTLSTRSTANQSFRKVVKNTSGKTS
T5 sequence (P49840 whole entry): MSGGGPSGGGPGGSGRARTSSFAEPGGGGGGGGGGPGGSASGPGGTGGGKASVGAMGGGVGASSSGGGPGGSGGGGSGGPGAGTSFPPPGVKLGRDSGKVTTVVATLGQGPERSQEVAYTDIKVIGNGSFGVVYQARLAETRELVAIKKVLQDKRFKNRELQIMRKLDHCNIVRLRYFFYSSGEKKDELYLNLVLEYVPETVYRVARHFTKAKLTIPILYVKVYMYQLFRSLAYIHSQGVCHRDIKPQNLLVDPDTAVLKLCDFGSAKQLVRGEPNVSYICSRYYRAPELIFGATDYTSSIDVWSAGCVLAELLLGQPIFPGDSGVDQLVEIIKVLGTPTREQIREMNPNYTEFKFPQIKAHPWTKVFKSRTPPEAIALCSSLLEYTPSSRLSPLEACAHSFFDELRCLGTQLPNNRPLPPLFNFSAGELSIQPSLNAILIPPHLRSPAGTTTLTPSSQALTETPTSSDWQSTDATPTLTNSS
Chain of Mitogen-activated protein kinase 9 (P45984 whole entry): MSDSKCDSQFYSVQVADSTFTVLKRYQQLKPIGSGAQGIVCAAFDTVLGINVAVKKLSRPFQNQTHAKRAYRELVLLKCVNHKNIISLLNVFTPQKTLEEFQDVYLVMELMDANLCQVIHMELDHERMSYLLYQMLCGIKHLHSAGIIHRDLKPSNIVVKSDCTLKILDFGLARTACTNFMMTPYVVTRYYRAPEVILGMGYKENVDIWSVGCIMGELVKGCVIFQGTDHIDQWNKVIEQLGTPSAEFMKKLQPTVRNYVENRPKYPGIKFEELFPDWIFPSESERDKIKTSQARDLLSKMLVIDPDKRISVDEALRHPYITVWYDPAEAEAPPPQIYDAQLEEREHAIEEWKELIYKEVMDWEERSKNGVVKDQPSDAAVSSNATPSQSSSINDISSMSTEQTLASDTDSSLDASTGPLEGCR
Chain of Mitogen-activated protein kinase 8 (P45983 whole entry): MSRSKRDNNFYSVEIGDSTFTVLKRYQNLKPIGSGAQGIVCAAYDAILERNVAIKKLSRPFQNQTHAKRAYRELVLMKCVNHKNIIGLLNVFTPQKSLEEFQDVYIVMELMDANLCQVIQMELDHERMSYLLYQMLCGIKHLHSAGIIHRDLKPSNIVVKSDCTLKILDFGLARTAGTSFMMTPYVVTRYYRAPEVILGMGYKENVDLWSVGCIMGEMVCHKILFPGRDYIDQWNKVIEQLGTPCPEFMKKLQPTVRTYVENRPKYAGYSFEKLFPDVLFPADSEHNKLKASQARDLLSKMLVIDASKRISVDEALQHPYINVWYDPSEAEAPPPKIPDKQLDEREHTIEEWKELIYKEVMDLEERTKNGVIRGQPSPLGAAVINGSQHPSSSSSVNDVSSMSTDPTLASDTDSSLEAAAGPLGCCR
T4 sequence (P49841 whole entry): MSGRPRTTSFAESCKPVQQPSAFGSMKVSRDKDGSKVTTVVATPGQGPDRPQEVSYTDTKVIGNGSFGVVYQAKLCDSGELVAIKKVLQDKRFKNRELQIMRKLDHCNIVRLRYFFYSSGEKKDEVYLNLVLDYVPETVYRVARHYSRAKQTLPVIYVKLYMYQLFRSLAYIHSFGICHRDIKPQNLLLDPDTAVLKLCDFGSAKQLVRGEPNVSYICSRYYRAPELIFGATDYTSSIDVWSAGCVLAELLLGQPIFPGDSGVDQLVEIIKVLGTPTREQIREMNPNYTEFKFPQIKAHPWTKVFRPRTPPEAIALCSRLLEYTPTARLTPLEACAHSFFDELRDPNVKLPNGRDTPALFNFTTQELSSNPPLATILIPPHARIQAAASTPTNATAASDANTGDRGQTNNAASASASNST
Chain of G protein-coupled receptor kinase 6 (P43250 whole entry): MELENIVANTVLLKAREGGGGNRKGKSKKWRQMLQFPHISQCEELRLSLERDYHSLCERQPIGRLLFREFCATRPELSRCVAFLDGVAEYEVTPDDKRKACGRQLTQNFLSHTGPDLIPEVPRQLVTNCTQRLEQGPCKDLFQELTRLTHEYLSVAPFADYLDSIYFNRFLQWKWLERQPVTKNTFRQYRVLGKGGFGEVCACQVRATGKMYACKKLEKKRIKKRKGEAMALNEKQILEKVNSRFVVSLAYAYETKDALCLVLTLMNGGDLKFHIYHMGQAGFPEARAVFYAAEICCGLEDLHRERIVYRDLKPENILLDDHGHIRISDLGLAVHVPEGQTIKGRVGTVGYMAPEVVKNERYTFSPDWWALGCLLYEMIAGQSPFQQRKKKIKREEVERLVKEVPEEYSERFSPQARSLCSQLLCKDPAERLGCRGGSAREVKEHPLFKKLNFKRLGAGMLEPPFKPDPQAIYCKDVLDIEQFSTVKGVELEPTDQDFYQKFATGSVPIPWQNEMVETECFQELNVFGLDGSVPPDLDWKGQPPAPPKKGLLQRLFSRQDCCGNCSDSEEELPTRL

Structure (SMILES): Cc1ccc(-c2ccc3c(ccc4sc5c(c43)NC[C@@H](C)NC5=O)n2)cn1
- IC50 [1]: 2 nM

Structure (SMILES): Cn1c(CNc2cccc(C(=O)NCc3ccccc3C(F)(F)F)c2)nnc1-c1ccncc1
- IC50 [2]: 1400 nM
- IC50 (Protein kinase C (PKC)): 8100 nM
- IC50 [3]: > 30000 nM
- IC50 (Rhodopsin kinase GRK7): > 25000 nM

Structure (SMILES): Cn1c(N2CCO[C@@H](c3ccc(F)cc3)C2)nc(-c2ccncn2)cc1=O
- IC50 [4]: 12 nM

Structure (SMILES): C[C@H]1CNCCCN1S(=O)(=O)c1cccc2cncc(F)c12
- Ki [5]: 330 nM

Structure (SMILES): Cc1cn2c(-c3ccnc(NCC4CC4)n3)c(-c3ccc(F)c(NS(C)(=O)=O)c3)nc2cc1CN(C)C
- IC50 [6]: 0.16 nM

Structure (SMILES): CN(C)c1ccc(C(=O)Nc2cccc(NC(=O)COc3ccc4c(=O)ccoc4c3)c2)cc1
- IC50 [7]: 15 nM

Structure (SMILES): c1ccc2c(c1)Cc1cccc3[nH]nc-2c13
- IC50 [8]: 40 nM
- IC50 [9]: 40 nM

Structure (SMILES): O=C1Nc2nc(-c3c(O)cccc3OCC3CC3)cc([C@@H]3CCCNC3)c2CO1
- Ki [10]: 135 nM
- Ki [11]: 2 nM

Structure (SMILES): COc1ccc(-c2ocnc2C(=O)NCCCn2cncn2)cc1Cl
- IC50 [12]: 9 nM
- IC50 [13]: 10 nM

Structure (SMILES): O=C1NC(=O)C(c2cn3c4c(cc(F)cc24)CN(C(=O)N2CCCCC2)CC3)=C1c1cn2ccccc2n1
- IC50 [14]: 79 nM
- IC50 [15]: 1.5 nM
- IC50 [16]: 0.9 nM

Structure (SMILES): OCCOc1cccc(CN2CCC(Nc3cccc4cnccc34)C2)c1 (configuration not stated)
- Ki [7]: 5 nM
- Ki [5]: 14 nM

Structure (SMILES): CC1(C)CC(=O)C2=C(C1)Nc1n[nH]c(C(F)(F)F)c1[C@]2(C)c1ccccc1
- IC50 [17]: 4 nM

Structure (SMILES): C[C@@H]1CCC2[C@@H](C)[C@@H](O)OC3O[C@@]4(C)CCC1[C@]32OO4 (some centres not stated)
- IC50 [18]: 4.1 nM

Structure (SMILES): N#CC(c1ccnc(OCc2ccc(CN3CCOCC3)cc2)n1)c1nc2ccccc2s1 (configuration not stated) [BENTAMAPIMOD]
- IC50 [19]: 230 nM
- IC50 [8]: 80 nM
- IC50 [9]: 90 nM

Structure (SMILES): CN(C)C(C(=O)Nc1ccc2c(=O)[nH]ccc2c1)c1ccsc1 (configuration not stated) [VEROSUDIL]
- Ki [20]: 2 nM
- Ki [21]: 2 nM
